FGFR1/FGFR3 and FGFR4/FGFR3 data for 23 compounds are collected here from patent US10251892B2, “Bicyclic heterocycles as FGFR4 inhibitors” (Incyte Corporation, priority 2015, dated 2019).

Chain of FGFR3 enzyme (P22607 23-806): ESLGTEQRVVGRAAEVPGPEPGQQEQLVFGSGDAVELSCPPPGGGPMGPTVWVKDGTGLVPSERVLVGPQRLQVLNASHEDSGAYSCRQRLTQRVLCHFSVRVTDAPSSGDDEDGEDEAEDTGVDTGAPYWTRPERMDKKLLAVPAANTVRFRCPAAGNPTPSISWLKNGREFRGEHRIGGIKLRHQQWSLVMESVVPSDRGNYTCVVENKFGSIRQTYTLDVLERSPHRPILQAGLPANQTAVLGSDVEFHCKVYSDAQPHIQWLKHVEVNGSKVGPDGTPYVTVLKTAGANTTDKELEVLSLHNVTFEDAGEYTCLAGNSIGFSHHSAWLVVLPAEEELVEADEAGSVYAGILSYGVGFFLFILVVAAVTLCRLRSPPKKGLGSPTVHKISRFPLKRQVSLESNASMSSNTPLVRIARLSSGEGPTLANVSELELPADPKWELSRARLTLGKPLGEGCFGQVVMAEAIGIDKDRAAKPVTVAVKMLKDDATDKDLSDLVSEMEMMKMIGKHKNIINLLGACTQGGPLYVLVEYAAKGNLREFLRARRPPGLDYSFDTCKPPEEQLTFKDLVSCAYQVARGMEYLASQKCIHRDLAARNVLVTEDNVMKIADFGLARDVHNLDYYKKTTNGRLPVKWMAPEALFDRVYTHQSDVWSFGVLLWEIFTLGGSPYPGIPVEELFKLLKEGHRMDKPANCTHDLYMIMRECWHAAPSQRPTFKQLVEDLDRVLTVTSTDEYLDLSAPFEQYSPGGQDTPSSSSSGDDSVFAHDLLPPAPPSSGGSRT

In the assay the target is FGFR3 enzyme (Homo sapiens (Human), UniProt P22607). Briefly: FGFR Enzymatic Assay (peptide phosphorylation, FRET), FGFR3. Conditions: IC50 ratio showing FGFR3 selectivity; pre-incubated for 4 hours. It counts as biochemical. The method, then:
The inhibitor potency of the exemplified compounds was measured in an enzyme assay that measures peptide phosphorylation using FRET measurements to detect product formation. Inhibitors were serially diluted in DMSO and a volume of 0.5 μL was transferred to the wells of a 384-well plate.
GraphPad prism3 was used to analyze the data.
As to `COc1cc(OC)c(F)c(N2Cc3cnc(-c4cn(C)nc4C)cc3N(Cc3csc(C)n3)C2=O)c1F` [Example 95, 3-(2,6-difluoro-3,5-dimethoxyphenyl)-7-(1,3-dimethyl-1H-pyrazol-4-yl)-1-((2-methylthiazol-4-yl)methyl)-3,4-dihydropyrido[4,3-d]pyrimidin-2(1H)-one], the FGFR1/FGFR3 is listed as above 5 and the FGFR4/FGFR3 was above 10.

Turning to `COc1cc(OC)c(F)c(N2Cc3cnc(-c4cn(C)nc4C)cc3N(c3ccc(CC#N)cc3)C2=O)c1F` [Example 97, 2-(4-(3-(2,6-difluoro-3,5-dimethoxyphenyl)-7-(1,3-dimethyl-1H-pyrazol-4-yl)-2-oxo-3,4-dihydropyrido[4,3-d]pyrimidin-1(2H)-yl)phenyl)acetonitrile], the FGFR1/FGFR3 is recorded as above 5 and the FGFR4/FGFR3 is reported as above 10.

Turning to `COc1cc(OC)c(F)c(N2Cc3cnc(-c4cn(C)nc4C)cc3N(c3ccc(S(C)(=O)=O)cc3)C2=O)c1F` [Example 98, 3-(2,6-difluoro-3,5-dimethoxyphenyl)-7-(1,3-dimethyl-1H-pyrazol-4-yl)-1-(4-(methylsulfonyl)phenyl)-3,4-dihydropyrido[4,3-d]pyrimidin-2(1H)-one], the FGFR1/FGFR3 is recorded as above 5 and the FGFR4/FGFR3 is recorded as above 10.

As for `COc1cc(OC)c(F)c(N2Cc3cnc(-c4cn(C)nc4C)cc3N(c3cccc(F)c3)C2=O)c1F` [Example 99, 3-(2,6-difluoro-3,5-dimethoxyphenyl)-7-(1,3-dimethyl-1H-pyrazol-4-yl)-1-(3-fluorophenyl)-3,4-dihydropyrido[4,3-d]pyrimidin-2(1H)-one], the FGFR1/FGFR3 is recorded as above 5 and the FGFR4/FGFR3 is on record as above 5.

For the compound `COc1cc(OC)c(F)c(N2Cc3cnc(-c4cn(C)nc4C)cc3N(c3ccn(C)n3)C2=O)c1F` [Example 100, 3-(2,6-difluoro-3,5-dimethoxyphenyl)-7-(1,3-dimethyl-1H-pyrazol-4-yl)-1-(1-methyl-1H-pyrazol-3-yl)-3,4-dihydropyrido[4,3-d]pyrimidin-2(1H)-one], the FGFR1/FGFR3 is recorded as above 5 and the FGFR4/FGFR3 is reported as above 5.

Take `COc1cc(OC)c(F)c(N2Cc3cnc(-c4cn(C)nc4C)cc3N(c3ccc(F)c(F)c3)C2=O)c1F` [Example 102, 3-(2,6-difluoro-3,5-dimethoxyphenyl)-1-(3,4-difluorophenyl)-7-(1,3-dimethyl-1H-pyrazol-4-yl)-3,4-dihydropyrido[4,3-d]pyrimidin-2(1H)-one]: the FGFR1/FGFR3 is above 3 and the FGFR4/FGFR3 is given as above 10.

For the compound `COc1cc(OC)c(F)c(N2Cc3cnc(-c4cn(C)nc4C)cc3N(c3cc(F)cc(F)c3)C2=O)c1F` [Example 103, 3-(2,6-difluoro-3,5-dimethoxyphenyl)-1-(3,5-difluorophenyl)-7-(1,3-dimethyl-1H-pyrazol-4-yl)-3,4-dihydropyrido[4,3-d]pyrimidin-2(1H)-one], the FGFR1/FGFR3 was above 3 and the FGFR4/FGFR3 is recorded as above 5.

As for `COc1ccc(N2C(=O)N(c3c(F)c(OC)cc(OC)c3F)Cc3cnc(-c4cn(C)nc4C)cc32)cc1` [Example 104, 3-(2,6-difluoro-3,5-dimethoxyphenyl)-7-(1,3-dimethyl-1H-pyrazol-4-yl)-1-(4-methoxyphenyl)-3,4-dihydropyrido[4,3-d]pyrimidin-2(1H)-one], the FGFR1/FGFR3 is above 3 and the FGFR4/FGFR3 was above 5.

Turning to `COc1cc(OC)c(F)c(N2Cc3cnc(-c4cn(C)nc4C)cc3N(c3ncccn3)C2=O)c1F` [Example 105, 3-(2,6-difluoro-3,5-dimethoxyphenyl)-7-(1,3-dimethyl-1H-pyrazol-4-yl)-1-(pyrimidin-2-yl)-3,4-dihydropyrido[4,3-d]pyrimidin-2(1H)-one], the FGFR1/FGFR3 is listed as above 3 and the FGFR4/FGFR3 is listed as above 5.

With `CCc1cnc(N2C(=O)N(c3c(F)c(OC)cc(OC)c3F)Cc3cnc(-c4cn(C)nc4C)cc32)cn1` [Example 106, 3-(2,6-difluoro-3,5-dimethoxyphenyl)-7-(1,3-dimethyl-1H-pyrazol-4-yl)-1-(5-ethylpyrazin-2-yl)-3,4-dihydropyrido[4,3-d]pyrimidin-2(1H)-one], the FGFR1/FGFR3 is recorded as above 3 and the FGFR4/FGFR3 is listed as above 5.

For the compound `COc1cc(OC)c(F)c(N2Cc3cnc(-c4cn(C)nc4C)cc3N(c3cnc(C)cn3)C2=O)c1F` [Example 107, 3-(2,6-difluoro-3,5-dimethoxyphenyl)-7-(1,3-dimethyl-1H-pyrazol-4-yl)-1-(5-methylpyrazin-2-yl)-3,4-dihydropyrido[4,3-d]pyrimidin-2(1H)-one], the FGFR1/FGFR3 is above 3 and the FGFR4/FGFR3 is on record as above 10.

In the case of `COc1cc(OC)c(F)c(N2Cc3cnc(-c4cn(C)nc4C)cc3N(C[C@H]3CCOC3)C2=O)c1F` [Example 108, (R)-3-(2,6-difluoro-3,5-dimethoxyphenyl)-7-(1,3-dimethyl-1H-pyrazol-4-yl)-1-((tetrahydrofuran-3-yl)methyl)-3,4-dihydropyrido[4,3-d]pyrimidin-2(1H)-one], the FGFR1/FGFR3 is listed as above 3 and the FGFR4/FGFR3 is recorded as above 3.

For the compound `COc1cccc(N2C(=O)N(c3c(F)c(OC)cc(OC)c3F)Cc3cnc(-c4cn(C)nc4C)cc32)c1` [Example 109, 3-(2,6-difluoro-3,5-dimethoxyphenyl)-7-(1,3-dimethyl-1H-pyrazol-4-yl)-1-(3-methoxyphenyl)-3,4-dihydropyrido[4,3-d]pyrimidin-2(1H)-one], the FGFR1/FGFR3 is listed as above 3 and the FGFR4/FGFR3 is on record as above 10.

`COc1cc(OC)c(F)c(N2Cc3cnc(-c4cn(C)nc4C)cc3N(c3ccccc3F)C2=O)c1F` [Example 110, 3-(2,6-difluoro-3,5-dimethoxyphenyl)-7-(1,3-dimethyl-1H-pyrazol-4-yl)-1-(2-fluorophenyl)-3,4-dihydropyrido[4,3-d]pyrimidin-2(1H)-one]: the FGFR1/FGFR3 is recorded as above 3 and the FGFR4/FGFR3 is above 5.

For `CNS(=O)(=O)c1cccc(N2C(=O)N(c3c(F)c(OC)cc(OC)c3F)Cc3cnc(-c4cn(C)nc4C)cc32)c1` [Example 111, 3-(3-(2,6-difluoro-3,5-dimethoxyphenyl)-7-(1,3-dimethyl-1H-pyrazol-4-yl)-2-oxo-3,4-dihydropyrido[4,3-d]pyrimidin-1(2H)-yl)-N-methylbenzenesulfonamide], the FGFR1/FGFR3 is listed as above 3 and the FGFR4/FGFR3 is on record as above 5.

For the compound `COc1cnc(N2C(=O)N(c3c(F)c(OC)cc(OC)c3F)Cc3cnc(-c4cn(C)nc4C)cc32)cn1` [Example 112, 3-(2,6-difluoro-3,5-dimethoxyphenyl)-7-(1,3-dimethyl-1H-pyrazol-4-yl)-1-(5-methoxypyrazin-2-yl)-3,4-dihydropyrido[4,3-d]pyrimidin-2(1H)-one], the FGFR1/FGFR3 is reported as above 3 and the FGFR4/FGFR3 is listed as above 5.

As for `COc1cc(OC)c(F)c(N2Cc3cnc(-c4cn(C)nc4C)cc3N(c3ccc(C(=O)N(C)C)cc3)C2=O)c1F` [Example 113, 4-(3-(2,6-difluoro-3,5-dimethoxyphenyl)-7-(1,3-dimethyl-1H-pyrazol-4-yl)-2-oxo-3,4-dihydropyrido[4,3-d]pyrimidin-1(2H)-yl)-N,N-dimethylbenzamide], the FGFR1/FGFR3 is recorded as above 3 and the FGFR4/FGFR3 was above 5.

`COc1cc(OC)c(F)c(N2Cc3cnc(-c4cn(C)nc4C)cc3N(CCc3cnn(C)c3)C2=O)c1F` [Example 114, 3-(2,6-difluoro-3,5-dimethoxyphenyl)-7-(1,3-dimethyl-1H-pyrazol-4-yl)-1-(2-(1-methyl-1H-pyrazol-4-yl)ethyl)-3,4-dihydropyrido[4,3-d]pyrimidin-2(1H)-one]: the FGFR1/FGFR3 is listed as above 3 and the FGFR4/FGFR3 is reported as above 5.

Take `COc1cc(OC)c(F)c(N2Cc3cnc(-c4cn(C)nc4C)cc3N(c3ccc(-c4nnc(C)o4)cc3)C2=O)c1F` [Example 115, 3-(2,6-difluoro-3,5-dimethoxyphenyl)-7-(1,3-dimethyl-1H-pyrazol-4-yl)-1-(4-(5-methyl-1,3,4-oxadiazol-2-yl)phenyl)-3,4-dihydropyrido[4,3-d]pyrimidin-2(1H)-one]: the FGFR1/FGFR3 was above 3 and the FGFR4/FGFR3 is on record as above 5.

Take `COC(=O)N1CCC(N2C(=O)N(c3c(F)c(OC)cc(OC)c3F)Cc3cnc(-c4cn(C)nc4C)cc32)CC1` [Example 122, Methyl 4-(3-(2,6-difluoro-3,5-dimethoxyphenyl)-7-(1,3-dimethyl-1H-pyrazol-4-yl)-2-oxo-3,4-dihydropyrido[4,3-d]pyrimidin-1(2H)-yl)piperidine-1-carboxylate]: the FGFR1/FGFR3 is reported as above 5 and the FGFR4/FGFR3 is on record as above 5.

As to `COC(=O)Nc1ccc(N2C(=O)N(c3c(F)c(OC)cc(OC)c3F)Cc3cnc(-c4cn(C)nc4C)cc32)cc1` [Example 123, Methyl 4-(3-(2,6-difluoro-3,5-dimethoxyphenyl)-7-(1,3-dimethyl-1H-pyrazol-4-yl)-2-oxo-3,4-dihydropyrido[4,3-d]pyrimidin-1(2H)-yl)phenylcarbamate], the FGFR1/FGFR3 is above 5 and the FGFR4/FGFR3 is on record as above 3.

Consider `COc1cc(OC)c(F)c(N2Cc3cnc(-c4cn(C)nc4C)cc3N(Cc3cnn(C4CC4)c3)C2=O)c1F` [Example 124, 1-((1-cyclopropyl-1H-pyrazol-4-yl)methyl)-3-(2,6-difluoro-3,5-dimethoxyphenyl)-7-(1,3-dimethyl-1H-pyrazol-4-yl)-3,4-dihydropyrido[4,3-d]pyrimidin-2(1H)-one], for which the FGFR1/FGFR3 is given as above 10 and the FGFR4/FGFR3 is above 10.

For `COc1cc(OC)c(F)c(N2Cc3cnc(-c4cn(C)nc4C)cc3N(Cc3cnn(CC#N)c3)C2=O)c1F` [Example 125, 2-(4-((3-(2,6-difluoro-3,5-dimethoxyphenyl)-7-(1,3-dimethyl-1H-pyrazol-4-yl)-2-oxo-3,4-dihydropyrido[4,3-d]pyrimidin-1(2H)-yl)methyl)-1H-pyrazol-1-yl)acetonitrile], the FGFR1/FGFR3 was above 5 and the FGFR4/FGFR3 is reported as above 5.
